Key:
CASK = test: KINOMEscan; format: binding; conditions: 1000 nM
AKT3 = test: KINOMEscan; format: binding; conditions: 1000 nM
BRAF = test: KINOMEscan; format: binding; conditions: 1000 nM
EPHB6 = test: KINOMEscan; format: binding; conditions: 1000 nM
KIT-autoinhibited = test: KINOMEscan; format: binding; conditions: 1000 nM
CLK4 = test: KINOMEscan; format: binding; conditions: 1000 nM
MTOR = test: KINOMEscan; format: binding; conditions: 1000 nM
MST1R = test: KINOMEscan; format: binding; conditions: 1000 nM
[1] = system: TYK2(JH1domain-catalytic); test: KINOMEscan; format: binding; conditions: 1000 nM
CDKL5 = test: KINOMEscan; format: binding; conditions: 1000 nM
ADCK3 = test: KINOMEscan; format: binding; conditions: 1000 nM
EGFR(L861Q) = test: KINOMEscan; format: binding; conditions: 1000 nM
PRKR = test: KINOMEscan; format: binding; conditions: 1000 nM
PDGFRA = test: KINOMEscan; format: binding; conditions: 1000 nM
YES = test: KINOMEscan; format: binding; conditions: 1000 nM
CDK7 = test: KINOMEscan; format: binding; conditions: 1000 nM
HPK1 = test: KINOMEscan; format: binding; conditions: 1000 nM
PRKX = test: KINOMEscan; format: binding; conditions: 1000 nM
DDR2 = test: KINOMEscan; format: binding; conditions: 1000 nM
PRKG2 = test: KINOMEscan; format: binding; conditions: 1000 nM
TLK1 = test: KINOMEscan; format: binding; conditions: 1000 nM
BRK = test: KINOMEscan; format: binding; conditions: 1000 nM
PFTAIRE2 = test: KINOMEscan; format: binding; conditions: 1000 nM
CLK2 = test: KINOMEscan; format: binding; conditions: 1000 nM
PDGFRB = test: KINOMEscan; format: binding; conditions: 1000 nM
VEGFR2 = test: KINOMEscan; format: binding; conditions: 1000 nM
RAF1 = test: KINOMEscan; format: binding; conditions: 1000 nM
PIK3CA = test: KINOMEscan; format: binding; conditions: 1000 nM
YSK1 = test: KINOMEscan; format: binding; conditions: 1000 nM
CDK11 = test: KINOMEscan; format: binding; conditions: 1000 nM
NEK5 = test: KINOMEscan; format: binding; conditions: 1000 nM
PIP5K1C = test: KINOMEscan; format: binding; conditions: 1000 nM
CSNK1A1 = test: KINOMEscan; format: binding; conditions: 1000 nM
PLK2 = test: KINOMEscan; format: binding; conditions: 1000 nM
WNK3 = test: KINOMEscan; format: binding; conditions: 1000 nM
SU-DHL-6 = test: anti-proliferative CellTiter-Glo assay; format: cell-based; conditions: Homo sapiens, SU-DHL-6, 72 h
Procedure: (§1) Cell viability was measured using the CellTiter–Glo assay (Promega, USA) according to the manufacturer’s instructions, and […] was measured in a Bio-red Microplate reader (Bio-Red, USA).

SU-DHL-2 = test: anti-proliferative CellTiter-Glo assay; format: cell-based; conditions: Homo sapiens, SU-DHL-2, 72 h
Procedure: as §1

JEKO-1 = test: anti-proliferative CellTiter-Glo assay; format: cell-based; conditions: Homo sapiens, JeKo-1, 72 h
Procedure: as §1

TMD8 = test: anti-proliferative CellTiter-Glo assay; format: cell-based; conditions: Homo sapiens, TMD8, 72 h
Procedure: as §1

REC-1 = test: anti-proliferative CellTiter-Glo assay; format: cell-based; conditions: Homo sapiens, Rec1; REC-1, 72 h
Procedure: as §1

DOHH2 = test: anti-proliferative CellTiter-Glo assay; format: cell-based; conditions: Homo sapiens, DOHH-2; DOHH2, 72 h
Procedure: as §1

U2932 = test: anti-proliferative CellTiter-Glo assay; format: cell-based; conditions: Homo sapiens, U2932, 72 h
Procedure: as §1

Ramos = test: anti-proliferative CellTiter-Glo assay; format: cell-based; conditions: Homo sapiens, 72 h
Procedure: as §1

Raji = test: anti-proliferative CellTiter-Glo assay; format: cell-based; conditions: Homo sapiens, 72 h
Procedure: as §1

Pfeiffer = test: anti-proliferative CellTiter-Glo assay; format: cell-based; conditions: Homo sapiens, 72 h
Procedure: as §1

WSU-DLCL2 = test: anti-proliferative CellTiter-Glo assay; format: cell-based; conditions: Homo sapiens, WSUDLCL2; WSU-DLCL2, 72 h
Procedure: as §1

TXK = biological target: T1, TXK (Homo sapiens, UniProt P42681); test: KINOMEscan; format: binding; conditions: 1000 nM
T1 construct: purchased Invitrogen (Carlsbad, CA, USA)

EPHB2 = test: KINOMEscan; format: binding; conditions: 1000 nM
PHKG1 = test: KINOMEscan; format: binding; conditions: 1000 nM
NEK10 = test: KINOMEscan; format: binding; conditions: 1000 nM
IKK-epsilon = test: KINOMEscan; format: binding; conditions: 1000 nM
RIOK2 = test: KINOMEscan; format: binding; conditions: 1000 nM
MAP4K3 = test: KINOMEscan; format: binding; conditions: 1000 nM

T1 sequence (P42681 whole entry): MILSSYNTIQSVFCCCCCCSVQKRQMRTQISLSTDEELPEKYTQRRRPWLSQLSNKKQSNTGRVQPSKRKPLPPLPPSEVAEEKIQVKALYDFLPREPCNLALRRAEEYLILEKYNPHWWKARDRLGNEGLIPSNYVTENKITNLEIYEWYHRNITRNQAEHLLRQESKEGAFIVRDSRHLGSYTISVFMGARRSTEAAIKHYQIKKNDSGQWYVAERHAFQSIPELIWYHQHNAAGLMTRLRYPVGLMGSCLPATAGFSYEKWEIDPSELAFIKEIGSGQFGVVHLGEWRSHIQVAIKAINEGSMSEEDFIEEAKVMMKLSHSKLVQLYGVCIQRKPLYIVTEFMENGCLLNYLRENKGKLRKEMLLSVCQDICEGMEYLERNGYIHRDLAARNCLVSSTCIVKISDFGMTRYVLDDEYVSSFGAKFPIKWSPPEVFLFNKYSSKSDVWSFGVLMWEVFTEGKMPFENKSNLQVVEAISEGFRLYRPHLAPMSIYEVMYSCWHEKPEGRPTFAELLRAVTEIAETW

## C=CC(=O)Nc1cc(Nc2cc(-c3cccc(NC(=O)c4cc5c(s4)CCCC5)c3C)cn(C)c2=O)ccc1N1CCN(CC)CC1 [CHMFL-BTK-85]
CASK
  Percent Control: 100%
AKT3
  Percent Control: 97%
BRAF
  Percent Control: 100%
EPHB6
  Percent Control: 69%
KIT-autoinhibited
  Percent Control: 100%
CLK4
  Percent Control: 96%
MTOR
  Percent Control: 100%
MST1R
  Percent Control: 98%
[1]
  Percent Control: 100%
CDKL5
  Percent Control: 100%
ADCK3
  Percent Control: 78%
EGFR(L861Q)
  Percent Control: 94%
PRKR
  Percent Control: 49%
PDGFRA
  Percent Control: 100%
YES
  Percent Control: 17%
CDK7
  Percent Control: 96%
HPK1
  Percent Control: 85%
PRKX
  Percent Control: 95%
DDR2
  Percent Control: 100%
PRKG2
  Percent Control: 95%
TLK1
  Percent Control: 99%
BRK
  Percent Control: 21%
PFTAIRE2
  Percent Control: 99%
CLK2
  Percent Control: 84%
PDGFRB
  Percent Control: 68%
VEGFR2
  Percent Control: 99%
RAF1
  Percent Control: 88%
PIK3CA
  Percent Control: 82%
YSK1
  Percent Control: 80%
CDK11
  Percent Control: 82%
NEK5
  Percent Control: 100%
PIP5K1C
  Percent Control: 99%
CSNK1A1
  Percent Control: 100%
PLK2
  Percent Control: 100%
WNK3
  Percent Control: 100%
SU-DHL-6
  GI50: 970 ± 220 nM
SU-DHL-2
  GI50: 570 ± 350 nM
JEKO-1
  GI50: 1100 ± 240 nM
TMD8
  GI50: 17 ± 4 nM
REC-1
  GI50: 28 ± 7 nM
DOHH2
  GI50: 700 ± 150 nM
U2932
  GI50: 800 ± 96 nM
Ramos
  GI50: 1300 ± 100 nM
Raji
  GI50: 1500 ± 58 nM
Pfeiffer
  GI50: 290 ± 140 nM
WSU-DLCL2
  GI50: 1400 ± 210 nM
TXK
  percent of control binding at 1 µM: 82%
EPHB2
  Percent Control: 84%
PHKG1
  Percent Control: 94%
NEK10
  Percent Control: 100%
IKK-epsilon
  Percent Control: 53%
RIOK2
  Percent Control: 100%
MAP4K3
  Percent Control: 97%

Reference: paper PMC7490411 (Signal Transduction and Targeted Therapy, 2020)
